# According to patent publication US11129835B2, “Methods and compositions for the inhibition of PIN1” (Beth Israel Deaconess Medical Center, Inc., priority 2012, dated 2021):
# What was measured:
# [1] = target: T1, Pin1 (Homo sapiens, UniProt Q13526); assay: Pin1 fluorescence polarization competition assay, primary qHTS (HiFluor-488 / Alexa488 probe);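 note: Pin1 protein with fluorescent peptide probe, compound displacement read by fluorescence polarization, percent inhibition derived from corrected polarization values, concentration-response curves in 1536-well format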
# T1 sequence (Q13526 whole entry): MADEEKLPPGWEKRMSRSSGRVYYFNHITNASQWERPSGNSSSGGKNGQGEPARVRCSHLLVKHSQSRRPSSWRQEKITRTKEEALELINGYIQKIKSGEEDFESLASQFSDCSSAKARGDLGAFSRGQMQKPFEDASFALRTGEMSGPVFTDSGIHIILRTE
# Experimental: (§1) The goal of this assay was to identify small-molecule inhibitors of Pin1 using a fluorescence polarization competition assay (FIG. 1). […] Candidate compounds were screened in a concentration-titration series (e.g., 57 μM to 0.7 nM).
# (§2) Pin1 (0.6 μM) was dispensed into black, solid 1536-well plates (32 rows by 48 columns) at 2 μL/well in Pin1 buffer (10 mM HEPES (pH 7.5), 10 mM NaCl, 0.01% Tween20, 1 mM DTT, and 1% glycerol). Next, 23 nL of compound or DMSO was delivered to each well using a pin tool (tip wash sequence: DMSO, IPA, MeOH, 3 s vacuum dry). Two μL of Pin1-1b-HiFluor488 peptide in buffer (10 mM HEPES (pH 7.5), 10 mM NaCl, 0.01% Tween20, 1 mM DTT, and 1% glycerol, 0.02 μM Pin1-1b-HiFluor488) or DMSO was then dispensed to each well using a pin tool (tip wash sequence: DMSO, IPA, MeOH, 3 s vacuum dry), and plates were incubated at room temperature for 10 min (Table 2). Each plate included controls with no candidate inhibitory compound (32 wells), with unlabeled Pin1-1c titration (3.5 mM to 0.020 mM in a 1:2 dilution series including 2 replicates per concentration; 32 wells), and without Pin1 (64 wells).
# (§3) The fluorescence polarization signal of each well was measured on a ViewLux® plate reader using a 480/20 nm excitation filter and 540/25 nm S and P emission filters with a 20 second exposure with 2× binning (Table 2). Percent inhibitory activity was determined from corrected fluorescence polarization values.
# (§4) Concentration-response curves were fitted to the signals arising from the resulting fluorescence polarization. The concentration-effect curves were then classified based on curve quality (r^2), response magnitude, and degree of measured activity. Compounds were subsequently categorized based on their curve class.
# Curves showing change polarized fluorescence may be categorized into 5 classes. Class 1 includes complete curves, having 2 asymptotes and an r^2 value of ≥0.9, with an efficacy of either >80% (class 1.1) or ≤80% (class 1.2). Class 1 curves may also be classified as noisy curves when efficacy is >80% and r^2<0.9 (class 1.3) or when efficacy is ≤80% and r^2<0.9 (class 1.4). Class 2 includes incomplete curves having 1 asymptote and an r^2 value of either >0.9 (subclass a) or <0.9 (subclass b), with an efficacy of either >80% (class 2.1) or ≤80% (class 2.2). Class 2 curves may also be classified as noisy curves when efficacy is >80% and r^2<0.9 (class 2.3) or when efficacy is ≤80% and r^2<0.9 (class 2.4). Class 3 includes single point activity curves having 1 asymptote and an efficacy >3 SD from the mean activity of the sample field at the highest tested concentration. […] A fifth class captures any curves not otherwise classified (FIG. 4).
# [2] = target: T1, Pin1; assay: confirmatory Pin1 fluorescence polarization competition assay (Alexa488 reconfirmed); conditions: for Emax: read-out: Alexa488 Reconfirmed Efficacy; for Alexa488 Reconfirmed Curve Class: confirmatory retest;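 for all read-outs here: Pin1 competition with a HiFluor488-labelled peptide probe, read as fluorescence polarization after 10 min at room temperature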
# Experimental: as §1, §2, §3, §4
# [3] = target: T1, Pin1; assay: Pin1 fluorescence polarization competition assay with Tamra-probe (secondary); conditions: for Tamra Secondary Curve Class: Tamra-probe; for Emax: read-out: Tamra Secondary Efficacy
# Experimental: An assay was developed for the identification of inhibitors of Pin1. […] Candidate compounds were screened in a concentration-titration series (e.g., 57 μM to 0.7 nM).
# as §2, §3, §4
# A further secondary assessment was accomplished by replacing the HiFluor-488-labeled probe with Tamra-probe, a red-shifted fluorophore.
# [4] = Alexa488 Primary Potency, primary qHTS
# [5] = Average HTS Potency, average over Alexa488 primary, Alexa488 reconfirmed and Tamra secondary assays
# [6] = read-out: Alexa488 Primary Efficacy
"IC50 [1, 4] [µM]","IC50 [1, 5] [µM]","Emax [1, 6] [%]",Emax ([1]; read-out: Average HTS Efficacy) [%],IC50 [2] [µM],Emax [2] [%],IC50 [3] [µM],Tamra Secondary Curve Class [3],Emax [3] [%],Alexa488 Reconfirmed Curve Class [2],Alexa488 Primary Curve Class ([1]; primary qHTS),SMILES
25,20,55,83,10,99,24,2.2 (≤80% (class 2.2)),96,,,COc1ccc(NS(=O)(=O)c2ccc3c(c2)[C@H]2C=CC[C@H]2[C@@H](c2ccc(C(=O)O)cc2)N3)cc1 [Compound 40]
19,13,103,101,6,98,,,,,,COc1cc(/C=C2\SC(=O)N(c3ccc(Cl)cc3)C2=O)cc([N+](=O)[O-])c1O [Compound 38]
14,7,73,73,2,77,6,1.2 (≤80% (class 1.2)),70,1.2 (≤80% (class 1.2)),,O=C(c1ccc(=O)oc1)N1CCOCC1 [Compound 20]
3,1.16,69,79,0.34,89,0.43,,80,,1.2 (≤80% (class 1.2)),Cc1c(C(=O)c2no[n+]([O-])c2C(=O)c2cnn(C)c2C)cnn1C [Compound 30]
76,33,63,77,15,92,8,2.2 (≤80% (class 2.2)),77,,,O=C(O)Cc1c[nH]c2cccc(O)c12 [Compound 23]
36,24,90,79,12,63,24,2.2 (≤80% (class 2.2)),83,2.2 (≤80% (class 2.2)),2.2 (≤80% (class 2.2)),O=C(O)c1[nH]c2ccccc2c1C(c1cc(Cl)cc([N+](=O)[O-])c1O)c1c(C(=O)O)[nH]c2ccccc12 [Compound 44]
68,24,44,77,2,91,2,,95,,,Cc1ccc(C)n1-c1sccc1C(=O)O [Compound 18]
45,31,67,74,,103,18,2.2 (≤80% (class 2.2)),52,2.2 (≤80% (class 2.2)),2.2 (≤80% (class 2.2)),O=C(O)C1Nc2c(C(F)(F)F)ccc(Cl)c2C2C=CCC12 (stereo not shown) [Compound 8]
79,40,26,67,19,84,21,,91,2.2 (≤80% (class 2.2)),1.2 (≤80% (class 1.2)),COc1cc(C(c2c(C(=O)O)[nH]c3ccccc23)c2c(C(=O)O)[nH]c3ccccc23)ccc1OCc1ccccc1 [Compound 47]
38,13,21,61,0.24,82,0.19,,81,,1.2 (≤80% (class 1.2)),COc1ccc(C(=O)c2no[n+]([O-])c2C(=O)c2ccc(OC)cc2)cc1 [Compound 32]
9,4,89,89,2,89,3,,88,,,O=S(=O)(O)c1ccc(O)c2cc(Nc3ccccc3)ccc12 [Compound 13]
1.69,0.89,89,94,0.08,99,,,,,,O=C(c1cccs1)c1no[n+]([O-])c1C(=O)c1cccs1 [Compound 28]
16,20,63,67,,,24,3.0,71,,1.2 (≤80% (class 1.2)),O=C(O)c1[nH]c2ccccc2c1C(c1cc(Br)ccc1O)c1c(C(=O)O)[nH]c2ccccc12 [Compound 43]
11,15,101,80,14,62,19,2.2 (≤80% (class 2.2)),76,2.2 (≤80% (class 2.2)),,CCCCOc1ccc(C(=O)N/C(=C/c2cccc([N+](=O)[O-])c2)C(=O)O)cc1 [Compound 36]
,17,,88,21,93,12,2.2 (≤80% (class 2.2)),82,2.2 (≤80% (class 2.2)),,O=C(O)c1cc2cccc([N+](=O)[O-])c2[nH]1 [Compound 22]
3,0.9,83,85,0.1,90,0.1,,82,,,Cc1ccc(C(=O)c2no[n+]([O-])c2C(=O)c2ccc(C)cc2)cc1 [Compound 29]
20,22,71,94,24,111,21,,101,,,COc1ccc(NC(=O)CN(C)C(=O)c2cc3c(s2)CCC3)cc1 [Compound 26]
19,23,73,76,27,82,24,2.2 (≤80% (class 2.2)),73,2.2 (≤80% (class 2.2)),1.2 (≤80% (class 1.2)),COC(=O)COc1ccc(C2Nc3c(Cl)ccc(C(=O)O)c3C3C=CCC32)cc1 (stereo not shown) [Compound 42]
10,5,64,79,2,83,3,,89,,,Cc1ccc(C)n1-c1cccc(C(=O)O)c1 [Compound 17]
15,6,78,88,1.2,93,1.1,,92,,1.2 (≤80% (class 1.2)),O=C1OC(/C(=C\Nc2cc(Cl)ccc2O)[N+](=O)[O-])c2ccccc21 (stereo not shown) [Compound 12]
6,3,66,84,1.3,90,1.2,,95,,1.2 (≤80% (class 1.2)),CC(=O)c1ccc2c(c1)C1C=CCC1C(C(=O)O)N2 (stereo not shown) [Compound 1]
22.4,13.6,81.3,82.1,4.8,82.9,,,,,2.2 (≤80% (class 2.2)),Cc1cccc(N(Cc2cc(=O)[nH]c3ccccc23)C(=O)CCl)c1 [Compound 10]
3,7,23,30,,,11,2.2 (≤80% (class 2.2)),37,,1.2 (≤80% (class 1.2)),O=C(O)C1Nc2c(O)cccc2C2C=CCC12 (stereo not shown) [Compound 4]
14,17,28,41,,,21,3.0,53,,2.2 (≤80% (class 2.2)),COc1ccc(NC(=O)CN(C)C(O)c2cc(-c3ccco3)nc3ccccc23)cc1 (stereo not shown) [Compound 39]
1,1,53,63,1,73,,,,,,CCn1nc(-c2ccccc2C)nc2c(=O)n(C)c(=O)nc1-2 [Compound 48]
38,34,22,47,,,30,3.0,73,,2.2 (≤80% (class 2.2)),Cc1ccc(NC(=O)CN(C)C(=O)c2cccc(-n3cccc3)c2)cc1 [Compound 25]
50,25,27,48,1,70,,,,,1.2 (≤80% (class 1.2)),Cn1nc(-c2ccncc2)nc2c(=O)n(C)c(=O)nc1-2 [Compound 49]
1,4,93,95,7,98,,,,,,CC(=O)Nc1cc(=O)c2[nH]o[nH]c=2c1=O [Compound 50]
22,30,72,71,,,38,3.0,71,,,CCOc1cc(Br)cc(C(c2c(C(=O)O)[nH]c3ccccc23)c2c(C(=O)O)[nH]c3ccccc23)c1O [Compound 45]
